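In this assay, cells in 96-well plates receive the compound at five concentrations for 48 hours. Endpoints are linearly interpolated between the surrounding concentrations. The concentration for full growth arrest is given as TGI.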
Experiments:
Assay in all cases: NCI-60 cell line screen, 48 h
DU-145 prostate = tested on: DU-145 prostate
SN12C renal = tested on: SN12C renal
SK-MEL-5 melanoma = tested on: SK-MEL-5 melanoma
UACC-62 melanoma = tested on: UACC-62 melanoma
RPMI-8226 leukemia = tested on: RPMI-8226 leukemia
KM12 colon = tested on: KM12 colon
SF-295 CNS = tested on: SF-295 CNS
RXF 393 renal = tested on: RXF 393 renal
MCF7 breast = tested on: MCF7 breast
M14 melanoma = tested on: M14 melanoma
HOP-92 NSCLC = tested on: HOP-92 NSCLC
T-47D breast = tested on: T-47D breast
A549 NSCLC = tested on: A549 NSCLC
LOX IMVI melanoma = tested on: LOX IMVI melanoma
PC-3 prostate = tested on: PC-3 prostate
SK-MEL-28 melanoma = tested on: SK-MEL-28 melanoma
EKVX NSCLC = tested on: EKVX NSCLC
HCT-116 colon = tested on: HCT-116 colon
OVCAR-4 ovarian = tested on: OVCAR-4 ovarian
MDA-MB-231 breast = tested on: MDA-MB-231 breast
HS 578T breast = tested on: HS 578T breast
MDA-MB-435 = tested on: MDA-MB-435
OVCAR-8 ovarian = tested on: OVCAR-8 ovarian
NCI-H460 lung = tested on: NCI-H460 lung
ACHN renal = tested on: ACHN renal
SNB-75 CNS = tested on: SNB-75 CNS
NCI-H226 lung = tested on: NCI-H226 lung
SK-MEL-2 melanoma = tested on: SK-MEL-2 melanoma
NCI-H522 lung = tested on: NCI-H522 lung
BT-549 breast = tested on: BT-549 breast
HL-60(TB) leukemia = tested on: HL-60(TB) leukemia
SF-268 CNS = tested on: SF-268 CNS
HOP-62 NSCLC = tested on: HOP-62 NSCLC
NCI/ADR-RES ovarian = tested on: NCI/ADR-RES ovarian
U251 CNS = tested on: U251 CNS
K-562 leukemia = tested on: K-562 leukemia
CCRF-CEM leukemia = tested on: CCRF-CEM leukemia
786-0 renal = tested on: 786-0 renal
IGROV1 ovarian = tested on: IGROV1 ovarian
SNB-19 CNS = tested on: SNB-19 CNS
HCC-2998 colon = tested on: HCC-2998 colon
TK-10 renal = tested on: TK-10 renal
SK-OV-3 ovarian = tested on: SK-OV-3 ovarian
COLO 205 colon = tested on: COLO 205 colon
NCI-H23 lung = tested on: NCI-H23 lung
UO-31 renal = tested on: UO-31 renal
MDA-N = tested on: MDA-N
MOLT-4 leukemia = tested on: MOLT-4 leukemia
MALME-3M melanoma = tested on: MALME-3M melanoma
OVCAR-5 ovarian = tested on: OVCAR-5 ovarian
A498 renal = tested on: A498 renal
HCT-15 colon = tested on: HCT-15 colon
HT29 colon = tested on: HT29 colon
OVCAR-3 ovarian = tested on: OVCAR-3 ovarian
SR leukemia = tested on: SR leukemia
CAKI-1 renal = tested on: CAKI-1 renal
SW-620 colon = tested on: SW-620 colon
UACC-257 melanoma = tested on: UACC-257 melanoma

Cc1cc(=O)[nH]c(Sc2ccc([N+](=O)[O-])cc2[N+](=O)[O-])n1
TGI (DU-145 prostate): 43.5 µM | TGI (SN12C renal): 28.3 µM | TGI (SK-MEL-5 melanoma): 31.3 µM | TGI (UACC-62 melanoma): 41.4 µM | TGI (RPMI-8226 leukemia): 18.7 µM | TGI (KM12 colon): > 67.4 µM | TGI (SF-295 CNS): > 76.4 µM | TGI (RXF 393 renal): 26.1 µM | TGI (MCF7 breast): 64.2 µM | TGI (M14 melanoma): 32.3 µM | TGI (HOP-92 NSCLC): 19.2 µM | TGI (T-47D breast): 43 µM | TGI (A549 NSCLC): 40.2 µM | TGI (LOX IMVI melanoma): 8.67 µM | TGI (PC-3 prostate): 49.7 µM | TGI (SK-MEL-28 melanoma): 38.4 µM | TGI (EKVX NSCLC): > 57.2 µM | TGI (HCT-116 colon): > 34.6 µM | TGI (OVCAR-4 ovarian): > 56.1 µM | TGI (MDA-MB-231 breast): 46.9 µM | TGI (HS 578T breast): > 63.4 µM | TGI (MDA-MB-435): > 55.1 µM | TGI (OVCAR-8 ovarian): 30 µM | TGI (NCI-H460 lung): > 59.5 µM | TGI (ACHN renal): 38.4 µM | TGI (SNB-75 CNS): 39.9 µM | TGI (NCI-H226 lung): 40.9 µM | TGI (SK-MEL-2 melanoma): 46.4 µM | TGI (NCI-H522 lung): 22.9 µM | TGI (BT-549 breast): 26.8 µM | TGI (HL-60(TB) leukemia): 11.3 µM | TGI (SF-268 CNS): > 54.3 µM | TGI (HOP-62 NSCLC): > 58.5 µM | TGI (NCI/ADR-RES ovarian): > 66.3 µM | TGI (U251 CNS): 46.3 µM | TGI (K-562 leukemia): > 100 µM | TGI (CCRF-CEM leukemia): 23.1 µM | TGI (786-0 renal): 32.9 µM | TGI (IGROV1 ovarian): > 100 µM | TGI (SNB-19 CNS): > 66.8 µM | TGI (HCC-2998 colon): 30.6 µM | TGI (TK-10 renal): 29.6 µM | TGI (SK-OV-3 ovarian): > 100 µM | TGI (COLO 205 colon): 15.7 µM | TGI (NCI-H23 lung): 41.1 µM | TGI (UO-31 renal): 37.1 µM | TGI (MDA-N): 40.8 µM | TGI (MOLT-4 leukemia): > 100 µM | TGI (MALME-3M melanoma): 35.7 µM | TGI (OVCAR-5 ovarian): 35.2 µM | TGI (A498 renal): > 100 µM | TGI (HCT-15 colon): 28.4 µM | TGI (HT29 colon): 19.1 µM | TGI (OVCAR-3 ovarian): 31.2 µM | TGI (SR leukemia): > 100 µM | TGI (CAKI-1 renal): 28.9 µM | TGI (SW-620 colon): 18.1 µM | TGI (UACC-257 melanoma): 44.7 µM

CCOc1cc(CCNC)c2c(ccc3ccc(OC)c(O)c32)c1OC
TGI (DU-145 prostate): 28.5 µM | TGI (SN12C renal): 36.7 µM | TGI (SK-MEL-5 melanoma): 26.1 µM | TGI (UACC-62 melanoma): 31.1 µM | TGI (RPMI-8226 leukemia): > 100 µM | TGI (KM12 colon): 26.4 µM | TGI (SF-295 CNS): 30.1 µM | TGI (RXF 393 renal): 31.5 µM | TGI (MCF7 breast): 22.4 µM | TGI (M14 melanoma): 28.5 µM | TGI (HOP-92 NSCLC): 25.2 µM | TGI (T-47D breast): 51.1 µM | TGI (A549 NSCLC): 39.6 µM | TGI (LOX IMVI melanoma): 24.2 µM | TGI (PC-3 prostate): 27.6 µM | TGI (SK-MEL-28 melanoma): 37.8 µM | TGI (EKVX NSCLC): 36.3 µM | TGI (HCT-116 colon): 22.1 µM | TGI (OVCAR-4 ovarian): 27.2 µM | TGI (MDA-MB-231 breast): 28.5 µM | TGI (HS 578T breast): 45 µM | TGI (MDA-MB-435): 27.5 µM | TGI (OVCAR-8 ovarian): 29.4 µM | TGI (NCI-H460 lung): 32.9 µM | TGI (ACHN renal): 26.5 µM | TGI (SNB-75 CNS): 32.3 µM | TGI (NCI-H226 lung): 46.9 µM | TGI (SK-MEL-2 melanoma): 34.2 µM | TGI (NCI-H522 lung): 21.7 µM | TGI (BT-549 breast): 30.1 µM | TGI (HL-60(TB) leukemia): > 100 µM | TGI (SF-268 CNS): 38.3 µM | TGI (HOP-62 NSCLC): 37 µM | TGI (NCI/ADR-RES ovarian): 48.2 µM | TGI (U251 CNS): 32.2 µM | TGI (K-562 leukemia): > 100 µM | TGI (CCRF-CEM leukemia): > 100 µM | TGI (786-0 renal): 32.1 µM | TGI (IGROV1 ovarian): 27.7 µM | TGI (SNB-19 CNS): 30.1 µM | TGI (HCC-2998 colon): 30 µM | TGI (TK-10 renal): 32.7 µM | TGI (SK-OV-3 ovarian): 27.5 µM | TGI (COLO 205 colon): 42 µM | TGI (NCI-H23 lung): 27.1 µM | TGI (UO-31 renal): 29.6 µM | TGI (MDA-N): 10.5 µM | TGI (MOLT-4 leukemia): 26.4 µM | TGI (MALME-3M melanoma): 20 µM | TGI (OVCAR-5 ovarian): 29.5 µM | TGI (HCT-15 colon): 35.7 µM | TGI (HT29 colon): 30.7 µM | TGI (OVCAR-3 ovarian): 29.8 µM | TGI (SR leukemia): 20.5 µM | TGI (CAKI-1 renal): 34 µM | TGI (UACC-257 melanoma): 29.6 µM
